System: Z. mobilis strain 8b
Conditions: fermentation medium pH 6.0, 30° C., 150 rpm; supplemented with 6 g/L acetamide or 7.2 g/L acetic acid vs unsupplemented control; FIG. 1
Description: Fermentation medium was composed of 10 g/L yeast extract, 2 g/L KH2PO4, 70 g/L glucose, 40 g/L xylose and 0.1 M MES buffer.

Question: What does the source list for `CC(N)=O` [acetamide]?
Answer: final density / cell yield (as measured by dry cell mass) of Z. mobilis: no influence; growth rate of Z. mobilis: no influence

Question: `CC(=O)O` [acetic acid] was tested. Which “growth rate of Z. mobilis” value did it give?
Answer: reduced growth rate
